Test results reported in patent US6328989A, “Use of bicozamycin for the manufacture of a medicament for treating infections with enterohemorrhagic e. coli” (Fujisawa Pharmaceutical Co., Ltd., priority 1997, dated 2001).
Values after ≈ are worked out from the molar mass of the structure shown. Values joined by “and” are separate entries in the source; they are usually repeats but may differ in a detail not shown here. Equal values may be shown once. Read-outs that look alike come from different tables or passages of the source.

Tests used:
E. coli O-157:H7 = test: Minimum inhibitory concentration (MIC) against E. coli O-157:H7 strains by agar dilution method; type: cell-based; conditions: for MIC50 / MIC90: Escherichia coli, 18 h, 20 strains
VT2 [1] = type: cell-based, E. coli O-157:H7; conditions: 3h; for VT2 released: control 0h <2, control 3h 8; for VT2 intracellular: control 0h <2, control 3h 16; for VT2 released, ratio to control at 0h: control 3h ratio 8; for VT2 intracellular, ratio to control at 0h: control 3h ratio 16
VT1 [2] = type: cell-based, E. coli O-157:H7; conditions: 3h; for VT1 released: control 0h <2, control 3h 2; for VT1 released, ratio to control at 0h: control 3h ratio 2; for VT1 intracellular, ratio to control at 0h: control 3h ratio 32
Verotoxins (VT1 and VT2) = type: cell-based, E. coli O-157:H7; conditions: concentration greater than MIC; compared with untreated E. coli
verotoxins = test system: verotoxins; set-up: species or system E. coli FP1962 in DBA/2 mice; conditions: mouse, in vivo, po
VT1 [3] = test: Amount of VT1 in cecum of mice infected with E. coli O-157 (VTEC-RPLA); type: in vivo, E. coli FP1962 in DBA/2 mice; conditions: day 6
E. coli O-157 [4] = test: Viable cells in the cecum of mice infected with E. coli O-157; type: in vivo, E. coli FP1962 in DBA/2 mice; conditions: for Number of cells in cecum, individual mouse / Number of cells in cecum, mean: day 6; for Number of cells in cecum, individual mouse: DBA/2 mice; for Number of cells in cecum, mean: control mean 3.4 × 10^7
VT2 [5] = test: Amount of VT2 in cecum of mice infected with E. coli O-157 (VTEC-RPLA); type: in vivo, E. coli FP1962 in DBA/2 mice; conditions: day 6
E. coli O-157 [6] = test: Death of mice infected with E. coli O-157; type: in vivo, E. coli FP1962 in DBA/2 mice; conditions: 10 mg/kg/dose orally twice a day for 4 days
[7] = 32 mg/kg/dose orally twice a day for 4 days
[8] = 10 mg/kg/dose orally twice a day for 4 days

With `CC1(C)S[C@@H]2[C@H](NC(=O)[C@H](N)c3ccc(O)cc3)C(=O)N2[C@H]1C(=O)O` [AMX, Amoxicillin] the “MIC distribution: number of strains with MIC 1.56 μg/ml” value (E. coli O-157:H7) was 14 strains, the “MIC distribution: number of strains with MIC 6.25 μg/ml” value (E. coli O-157:H7) was 2 strains and the MIC50 (E. coli O-157:H7; aerobic) was 3.13 µg/mL (≈ 8.57 µM). For the same molecule, the MIC90 (E. coli O-157:H7; aerobic) was 6.25 µg/mL (≈ 17.1 µM), the MIC50 (E. coli O-157:H7; anaerobic) was 1.56 µg/mL (≈ 4.27 µM) and the MIC90 (E. coli O-157:H7; anaerobic) was 3.13 µg/mL (≈ 8.57 µM). For the same molecule, the “MIC distribution: number of strains with MIC >100 μg/ml” value (E. coli O-157:H7; aerobic, 20 strains tested) was 1 strains, the “MIC distribution: number of strains with MIC >100 μg/ml” value (E. coli O-157:H7; anaerobic, 20 strains tested) was 1 strains and the VT2 released (VT2 [1]; 10 μg/ml) was 8 maximum dilution times. For the same molecule, the VT2 intracellular (VT2 [1]; 10 μg/ml) was 4 maximum dilution times, the “VT2 released, ratio to control at 0h” value (VT2 [1]; 10 μg/ml) was 8 and the “VT2 intracellular, ratio to control at 0h” value (“VT2 intracellular, ratio” for short) (VT2 [1]; 10 μg/ml) was 4. For the same molecule, the VT1 intracellular (VT1 [2]; 10 μg/ml, control 0h 2, control 3h 64) was 64 maximum dilution times, the VT1 released (VT1 [2]; 10 μg/ml) was at least 256 maximum dilution times and the “VT1 released, ratio to control at 0h” value (VT1 [2]; 10 μg/ml) was at least 256. For the same molecule, the “VT1 intracellular, ratio to control at 0h” value (“VT1 intracellular, ratio” for short) (VT1 [2]; 10 μg/ml) was 32 and the “production and release of verotoxins” value (Verotoxins (VT1 and VT2)) was “both production and release of verotoxins increased much more than those with an untreated E. coli”.

Molecule `C=C1CCO[C@]2([C@@H](O)[C@@](C)(O)CO)NC(=O)[C@@]1(O)NC2=O` [BCM, Bicozamycin] has an MIC50 (E. coli O-157:H7; aerobic) of 25 µg/mL (≈ 82.7 µM), an MIC90 (E. coli O-157:H7; aerobic) of 25 µg/mL (≈ 82.7 µM) and an MIC50 (E. coli O-157:H7; anaerobic) of 12.5 µg/mL (≈ 41.4 µM). The MIC90 (E. coli O-157:H7; anaerobic) was 25 µg/mL (≈ 82.7 µM), the “MIC distribution: number of strains with MIC 25 μg/ml” value (E. coli O-157:H7; aerobic, 20 strains tested) was 20 strains and the “MIC distribution: number of strains with MIC 12.5 μg/ml” value (E. coli O-157:H7; anaerobic, 20 strains tested, MIC 12.5 μg/ml) was 15 strains. For the same molecule, the “MIC distribution: number of strains with MIC 25 μg/ml” value (E. coli O-157:H7; anaerobic, 20 strains tested) was 5 strains, the VT2 released (VT2 [1]; 10 μg/ml) was 2 maximum dilution times and the VT2 intracellular (VT2 [1]; 10 μg/ml) was 4 maximum dilution times. The “VT2 released, ratio to control at 0h” value (VT2 [1]; 10 μg/ml) was 2, the “VT2 intracellular, ratio” value (VT2 [1]; 10 μg/ml) was 4 and the VT2 released (VT2 [1]; 25 μg/ml) was under 2 maximum dilution times. For the same molecule, the VT2 intracellular (VT2 [1]; 25 μg/ml) was under 2 maximum dilution times, the “VT2 released, ratio to control at 0h” value (VT2 [1]; 25 μg/ml) was 1 and the “VT2 intracellular, ratio” value (VT2 [1]; 25 μg/ml) was 1. For the same molecule, the VT2 released (VT2 [1]; 100 μg/ml) was under 2 maximum dilution times, the VT2 intracellular (VT2 [1]; 100 μg/ml) was under 2 maximum dilution times and the “VT2 released, ratio to control at 0h” value (VT2 [1]; 100 μg/ml) was 1. The “VT2 intracellular, ratio” value (VT2 [1]; 100 μg/ml) was 1, the “production and release of verotoxins” value (verotoxins) was “suppressed the production and release of verotoxins” and the VT1 released (VT1 [2]; 10 μg/ml) was 8 maximum dilution times. For the same molecule, the “VT1 released, ratio to control at 0h” value (VT1 [2]; 10 μg/ml) was 8, the “VT1 intracellular, ratio” value (VT1 [2]; 10 μg/ml) was 16 and the VT1 released (VT1 [2]; 25 μg/ml) was 8 maximum dilution times. The “VT1 released, ratio to control at 0h” value (VT1 [2]; 25 μg/ml) was 8, the “VT1 intracellular, ratio” value (VT1 [2]; 25 μg/ml) was 1 and the VT1 released (VT1 [2]; 100 μg/ml) was 8 maximum dilution times. For the same molecule, the “VT1 released, ratio to control at 0h” value (VT1 [2]; 100 μg/ml) was 8, the “VT1 intracellular, ratio” value (VT1 [2]; 100 μg/ml) was 1 and the “Amount of VT1 in cecum, individual mouse” value (VT1 [3]; [7]) was under 2 titer. For the same molecule, the “Number of cells in cecum, individual mouse” value (“Number … individual mouse” for short) (E. coli O-157 [4]; [7]) was 4.5 × 10^3 cfu/site and 1.0 × 10^2 cfu/site and 8.5 × 10^3 cfu/site and 3.5 × 10^3 cfu/site and 1.0 × 10^5 cfu/site, the “Number of cells in cecum, mean” value (E. coli O-157 [4]; [7]) was 2.2 × 10^3 cfu/site and the “antimicrobial activity against VTEC” value (E. coli O-157 [4]; infected mice, 32 mg/kg/dose orally) was “showed an antimicrobial activity against VTEC”. The “Amount of VT2 in cecum, individual mouse” value (VT2 [5]; [7]) was < 2 titer and 2 titer and the “production and release of verotoxins” value (Verotoxins (VT1 and VT2)) was “increases in production and release of verotoxins were dramatically suppressed”.

For `CC[C@H]1OC(=O)[C@H](C)[C@@H](O[C@H]2C[C@@](C)(OC)[C@@H](O)[C@H](C)O2)[C@H](C)[C@@H](O[C@@H]2O[C@H](C)C[C@H](N(C)C)[C@H]2O)[C@](C)(OC)C[C@@H](C)C(=O)[C@H](C)[C@@H](O)[C@]1(C)O` [CAM, clathromycin], the “Amount of VT1 in cecum, individual mouse” value (VT1 [3]; [7]) was 2 titer and 4 titer, the “Number … individual mouse” value (E. coli O-157 [4]; [7]) was 2.4 × 10^7 cfu/site and 7.9 × 10^7 cfu/site and 1.0 × 10^8 cfu/site and 1.3 × 10^8 cfu/site and 7.0 × 10^6 cfu/site and 4.1 × 10^8 cfu/site and the “Number of cells in cecum, mean” value (E. coli O-157 [4]; [7]) was 6.5 × 10^7 cfu/site. For the same molecule, the “Amount of VT2 in cecum, individual mouse” value (VT2 [5]; [7]) was 2 titer and 4 titer and < 2 titer and 8 titer.

In the case of `C[C@@H]1O[C@@H]1P(=O)(O)O` [FOM, fosfomycin], the “Amount of VT1 in cecum, individual mouse” value (VT1 [3]; [7]) is reported as under 2 titer, the “Number … individual mouse” value (E. coli O-157 [4]; [7]) is reported as 7.1 × 10^5 cfu/site and 3.0 × 10^4 cfu/site and 1.2 × 10^8 cfu/site and 4.6 × 10^7 cfu/site and 9.8 × 10^6 cfu/site and 4.9 × 10^7 cfu/site and the “Number of cells in cecum, mean” value (E. coli O-157 [4]; [7]) is reported as 6.2 × 10^6 cfu/site. For the same molecule, the “Amount of VT2 in cecum, individual mouse” value (VT2 [5]; [7]) was < 2 titer and 32 titer and 4 titer and 16 titer.

In the case of `CCn1cc(C(=O)O)c(=O)c2cc(F)c(N3CCNCC3)cc21` [NFLX, norfloxacin], the “Amount of VT1 in cecum, individual mouse” value (VT1 [3]; [8]) is reported as 2 titer, the “Number … individual mouse” value (E. coli O-157 [4]; [8]) is reported as 6.9 × 10^5 cfu/site and the “Number of cells in cecum, mean” value (E. coli O-157 [4]; [8]) is reported as 6.9 × 10^5 cfu/site. The “Amount of VT2 in cecum, individual mouse” value (VT2 [5]; [8]) was 16 titer, the “death, individual mouse” value (E. coli O-157 [6]) was “died” and the “tested mice that died due to increased verotoxins” value (E. coli O-157 [6]) was “Five of 6”.
